This passage reports IC50 results from US5006546A, “Imidazole derivatives” (Rhone-Poulenc Sante, priority 1989, dated 1991).

One may read the IC50 as the concentration at which inhibition is half-maximal. High values mean a need for much substance, low ones inhibition by little substance.

This test concerns the target T1, acyl coenzyme-A:cholesterol-O-acyl transferase (ACAT; EC 2.3.1.26) (Rattus norvegicus, UniProt Q7TQM4).
T1 construct: microsomes obtained from the livers of rats; from tissue; host or cells: liver microsomes of rats fed 0.5% w/w cholesterol and 0.25% w/w cholic acid
T1 sequence (Q7TQM4 1-524): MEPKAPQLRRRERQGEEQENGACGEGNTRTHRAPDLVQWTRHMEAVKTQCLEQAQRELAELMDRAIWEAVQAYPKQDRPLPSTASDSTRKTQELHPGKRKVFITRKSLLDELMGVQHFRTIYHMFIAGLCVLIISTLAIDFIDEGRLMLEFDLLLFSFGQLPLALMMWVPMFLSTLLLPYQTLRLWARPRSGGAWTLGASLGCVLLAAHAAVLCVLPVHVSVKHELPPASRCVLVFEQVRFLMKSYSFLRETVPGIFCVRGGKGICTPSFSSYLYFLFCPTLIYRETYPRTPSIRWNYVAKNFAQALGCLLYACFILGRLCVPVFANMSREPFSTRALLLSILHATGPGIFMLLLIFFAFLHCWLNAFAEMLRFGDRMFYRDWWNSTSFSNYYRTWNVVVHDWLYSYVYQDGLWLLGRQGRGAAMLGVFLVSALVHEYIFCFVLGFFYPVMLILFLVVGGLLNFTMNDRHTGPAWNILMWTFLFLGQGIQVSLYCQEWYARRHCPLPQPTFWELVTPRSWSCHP
The test is described as follows: In vitro inhibition of acyl coenzyme-A:cholesterol-O-acyl transferase (ACAT) in liver microsomes of cholesterol/cholic acid-fed rats. Type of test: biochemical. The conditions noted are these: microsomes from livers of rats fed a diet containing 0.5% w/w cholesterol and 0.25% w/w cholic acid. Background: Microsomes from liver hold many membrane-bound enzymes, among them those of drug oxidation.

Molecules are shown by their SMILES.

The molecule `CO[C@@H]1C[C@H](O)C[C@@H](CSc2nc(-c3ccccc3)c(-c3ccccc3)[nH]2)O1` [(I), (2S,4R,6S)-6-[(4,5-diphenylimidazol-2-yl)thiomethyl]-4-hydroxy-2-methoxy-3,4,5,6-tetrahydro-2H-pyran] yielded an IC50 of 50 nM.

The molecule `CO[C@H]1C[C@H](O)C[C@@H](CSc2nc(-c3ccccc3)c(-c3ccccc3)[nH]2)O1` [(II), (2R,4R,6S)-6-[(4,5-diphenylimidazol-2-yl)thiomethyl]-4-hydroxy-2-methoxy-3,4,5,6-tetrahydro-2H-pyran] yielded a half-maximal inhibitory concentration (IC50) of 91 nM.
